Data from US8192962B2, “Processes for detecting toxic substances” (Daikin Industries, Ltd., priority 2001, dated 2012).

System: Detoxification protein genes
Assay: DNA chip mRNA expression in yeast, detoxification protein genes (Table 8)
Type: cell-based, Saccharomyces cerevisiae S288C
Experimental: Yeast (Saccharomyces cerevisiae S288C (α SUC2mal mel gap2 CUP1)) were incubated at 25° C. on YPD medium (yeast extract 1%, polypepton 2%, glucose 2%). One of toxic chemical substances was added to the cells at logarithmic growth phase, and the cells were further incubated for two hours. Cells were cultured without any chemical substance in the same condition, and were used as control. Concentrations of the chemical substances were defined to inhibit the growth of the yeast but not lead to death.
After completion of the incubation, the culture was centrifuged to collect the cells. To the cells, sodium acetate buffer (50 mM sodium acetate, 10 mM EDTA, 1% SDS) was added, and the mixture was shaken at 65° C. for five minutes, followed by returning to room temperature, and obtaining the supernatant, of which the procedures were repeated two times. To the supernatant, ½ amount of a solution of phenol/chloroform was added, and the mixture was centrifuged to give a supernatant, which was added with an equal amount of chloroform, and the mixture was centrifuged to give a supernatant. To the supernatant, an equal amount of isopropanol containing 0.3 M sodium acetate was added, and the mixture was allowed to stand at room temperature for 30 minutes, after which the mixture was centrifuged to give a sediment of the whole RNAs. Seventy % ethanol was added to the sediment, and the mixture was again centrifuged to give a sediment, which was then dried and dissolved in water. mRNA was isolated from the whole RNAs as followings. In view of the fact that a poly A chain is attached to the 3′ terminus of mRNA, a polynucleotide having a poly T structure which was immobilized on the surface of latex beads was used to trap the mRNA, and then the mRNA was washed and eluted with spine column (Oligotex-dT30<Super>mRNA Purification Kit, Takara). Reverse transcription of the mRNA was conducted with a reverse transcriptase (Super Script II Reverse Transcriptase; catalogue No. 18064-014, GibcoBRL) using fluorescence-labeled nucleotides to give cDNAs that were introduced with Cy3-dUTP or Cy5-dUTP during the reverse transcription.
The labeled cDNAs were dissolved in TE buffer (10mM Tris-HCl/1 mM EDTA, pH8.0), and the solution was dropped on the DNA chip containing the whole genes of yeast (DNA Chip Research Inc. Japan) so that the cDNAs were hybridized on the DNA chip at 65° C. for over 12 hours. The fluoresces intensity of the DNA chip was read with a scanner, and the ratio relative to the fluorescence intensity resulting from the absence of chemical substance was estimated as the following, which is shown in Tables 1 to 9: […]

## [Cl][Hg][Cl] [(3), HgCl2]
Yeast gene YBL064C
  The level of expressed mRNA in the presence of chemical substance/The level of expressed mRNA in the absence of chemical substance: 3.9
Yeast gene YBR008C
  The level of expressed mRNA in the presence of chemical substance/The level of expressed mRNA in the absence of chemical substance: 4.9
Yeast gene YBR145W
  The level of expressed mRNA in the presence of chemical substance/The level of expressed mRNA in the absence of chemical substance: 2.8
Yeast gene YBR244W
  The level of expressed mRNA in the presence of chemical substance/The level of expressed mRNA in the absence of chemical substance: 2.0
Yeast gene YBR293W
  The level of expressed mRNA in the presence of chemical substance/The level of expressed mRNA in the absence of chemical substance: 1.0
Yeast gene YCL035C
  The level of expressed mRNA in the presence of chemical substance/The level of expressed mRNA in the absence of chemical substance: 1.5
Yeast gene YCL069W
  The level of expressed mRNA in the presence of chemical substance/The level of expressed mRNA in the absence of chemical substance: 0.9
Yeast gene YCR083W
  The level of expressed mRNA in the presence of chemical substance/The level of expressed mRNA in the absence of chemical substance: 1.5
Yeast gene YDL100C
  The level of expressed mRNA in the presence of chemical substance/The level of expressed mRNA in the absence of chemical substance: 1.1
Yeast gene YDL168W
  The level of expressed mRNA in the presence of chemical substance/The level of expressed mRNA in the absence of chemical substance: 2.1
Yeast gene YDR256C
  The level of expressed mRNA in the presence of chemical substance/The level of expressed mRNA in the absence of chemical substance: 0.7
Yeast gene YDR453C
  The level of expressed mRNA in the presence of chemical substance/The level of expressed mRNA in the absence of chemical substance: 4.4
Yeast gene YDR513W
  The level of expressed mRNA in the presence of chemical substance/The level of expressed mRNA in the absence of chemical substance: 2.3
Yeast gene YDR538W
  The level of expressed mRNA in the presence of chemical substance/The level of expressed mRNA in the absence of chemical substance: 2.4
Yeast gene YEL027W
  The level of expressed mRNA in the presence of chemical substance/The level of expressed mRNA in the absence of chemical substance: 3.4
Yeast gene YEL065W
  The level of expressed mRNA in the presence of chemical substance/The level of expressed mRNA in the absence of chemical substance: 1.2
Yeast gene YER185W
  The level of expressed mRNA in the presence of chemical substance/The level of expressed mRNA in the absence of chemical substance: 2.1
Yeast gene YFL050C
  The level of expressed mRNA in the presence of chemical substance/The level of expressed mRNA in the absence of chemical substance: 1.1
Yeast gene YGL013C
  The level of expressed mRNA in the presence of chemical substance/The level of expressed mRNA in the absence of chemical substance: 0.8
Yeast gene YGL254W
  The level of expressed mRNA in the presence of chemical substance/The level of expressed mRNA in the absence of chemical substance: 0.8
Yeast gene YGR088W
  The level of expressed mRNA in the presence of chemical substance/The level of expressed mRNA in the absence of chemical substance: 7.7
Yeast gene YGR138C
  The level of expressed mRNA in the presence of chemical substance/The level of expressed mRNA in the absence of chemical substance: 1.0
Yeast gene YGR197C
  The level of expressed mRNA in the presence of chemical substance/The level of expressed mRNA in the absence of chemical substance: 2.5
Yeast gene YGR209C
  The level of expressed mRNA in the presence of chemical substance/The level of expressed mRNA in the absence of chemical substance: 3.5
Yeast gene YGR224W
  The level of expressed mRNA in the presence of chemical substance/The level of expressed mRNA in the absence of chemical substance: 1.2
Yeast gene YHL040C
  The level of expressed mRNA in the presence of chemical substance/The level of expressed mRNA in the absence of chemical substance: 1.5
Yeast gene YHL047C
  The level of expressed mRNA in the presence of chemical substance/The level of expressed mRNA in the absence of chemical substance: 1.0
Yeast gene YHR008C
  The level of expressed mRNA in the presence of chemical substance/The level of expressed mRNA in the absence of chemical substance: 4.8
Yeast gene YHR048W
  The level of expressed mRNA in the presence of chemical substance/The level of expressed mRNA in the absence of chemical substance: 1.4
Yeast gene YHR053C
  The level of expressed mRNA in the presence of chemical substance/The level of expressed mRNA in the absence of chemical substance: 0.7
Yeast gene YHR055C
  The level of expressed mRNA in the presence of chemical substance/The level of expressed mRNA in the absence of chemical substance: 0.8
Yeast gene YIR002C
  The level of expressed mRNA in the presence of chemical substance/The level of expressed mRNA in the absence of chemical substance: 0.5
Yeast gene YIR038C
  The level of expressed mRNA in the presence of chemical substance/The level of expressed mRNA in the absence of chemical substance: 4.6
Yeast gene YJL101C
  The level of expressed mRNA in the presence of chemical substance/The level of expressed mRNA in the absence of chemical substance: 2.1
Yeast gene YJR104C
  The level of expressed mRNA in the presence of chemical substance/The level of expressed mRNA in the absence of chemical substance: 2.9
Yeast gene YKL026C
  The level of expressed mRNA in the presence of chemical substance/The level of expressed mRNA in the absence of chemical substance: 1.2
Yeast gene YKL064W
  The level of expressed mRNA in the presence of chemical substance/The level of expressed mRNA in the absence of chemical substance: 0.4
Yeast gene YKR066C
  The level of expressed mRNA in the presence of chemical substance/The level of expressed mRNA in the absence of chemical substance: 5.5
Yeast gene YKR105C
  The level of expressed mRNA in the presence of chemical substance/The level of expressed mRNA in the absence of chemical substance: 0.9
Yeast gene YKR106W
  The level of expressed mRNA in the presence of chemical substance/The level of expressed mRNA in the absence of chemical substance: 2.1
Yeast gene YLL028W
  The level of expressed mRNA in the presence of chemical substance/The level of expressed mRNA in the absence of chemical substance: 4.6
Yeast gene YLL057C
  The level of expressed mRNA in the presence of chemical substance/The level of expressed mRNA in the absence of chemical substance: 1.8
Yeast gene YLL060C
  The level of expressed mRNA in the presence of chemical substance/The level of expressed mRNA in the absence of chemical substance: 2.3
Yeast gene YLR043C
  The level of expressed mRNA in the presence of chemical substance/The level of expressed mRNA in the absence of chemical substance: 2.0
Yeast gene YLR046C
  The level of expressed mRNA in the presence of chemical substance/The level of expressed mRNA in the absence of chemical substance: 0.9
Yeast gene YML028W
  The level of expressed mRNA in the presence of chemical substance/The level of expressed mRNA in the absence of chemical substance: 4.4
Yeast gene YML116W
  The level of expressed mRNA in the presence of chemical substance/The level of expressed mRNA in the absence of chemical substance: 1.5
Yeast gene YMR015C
  The level of expressed mRNA in the presence of chemical substance/The level of expressed mRNA in the absence of chemical substance: 1.9
Yeast gene YMR038C
  The level of expressed mRNA in the presence of chemical substance/The level of expressed mRNA in the absence of chemical substance: 1.8
Yeast gene YNL239W
  The level of expressed mRNA in the presence of chemical substance/The level of expressed mRNA in the absence of chemical substance: 2.4
Yeast gene YNL241C
  The level of expressed mRNA in the presence of chemical substance/The level of expressed mRNA in the absence of chemical substance: 4.3
Yeast gene YNL259C
  The level of expressed mRNA in the presence of chemical substance/The level of expressed mRNA in the absence of chemical substance: 1.1
Yeast gene YOL158C
  The level of expressed mRNA in the presence of chemical substance/The level of expressed mRNA in the absence of chemical substance: 2.4
Yeast gene YOR031W
  The level of expressed mRNA in the presence of chemical substance/The level of expressed mRNA in the absence of chemical substance: 1.3
Yeast gene YOR153W
  The level of expressed mRNA in the presence of chemical substance/The level of expressed mRNA in the absence of chemical substance: 5.1
Yeast gene YOR247W
  The level of expressed mRNA in the presence of chemical substance/The level of expressed mRNA in the absence of chemical substance: 3.6
Yeast gene YOR251C
  The level of expressed mRNA in the presence of chemical substance/The level of expressed mRNA in the absence of chemical substance: 1.3
Yeast gene YOR273C
  The level of expressed mRNA in the presence of chemical substance/The level of expressed mRNA in the absence of chemical substance: 1.7
Yeast gene YPL163C
  The level of expressed mRNA in the presence of chemical substance/The level of expressed mRNA in the absence of chemical substance: 1.4
Yeast gene YPR200C
  The level of expressed mRNA in the presence of chemical substance/The level of expressed mRNA in the absence of chemical substance: 0.8
